In brackets after ≈: the same amount, converted by molar mass. Where two headings read alike, the source gives them in different places.
Legend:
Type in all cases: cell-based
A. baumannii ATCC15308 = assay: MIC determination, broth microdilution (CLSI); settings: Acinetobacter baumannii, ATCC15308, strain 9
E. cloacae 34654 = assay: MIC determination, broth microdilution (CLSI); settings: Enterobacter cloacae, 34654, strain 3
[1] = system: P. aeruginosa 2297-con (AmpC derepressed); assay: MIC determination, broth microdilution (CLSI); settings: Pseudomonas aeruginosa, read-out: strain 8 MIC, strain 8
[2] = system: P. aeruginosa 2297 (AmpC wt); assay: MIC determination, broth microdilution (CLSI); settings: Pseudomonas aeruginosa, strain 7
S. aureus 133 = assay: MIC determination, broth microdilution (CLSI)
K. pneumoniae 60 = assay: MIC determination, broth microdilution (CLSI); settings: Klebsiella pneumoniae, 60, strain 2
Bacteria = assay: MIC determination in combination with β-lactamase inhibitors (constant 4 μg/mL)
S. maltophilia ICB7569 = assay: MIC determination, broth microdilution (CLSI); settings: Stenotrophomonas maltophilia, ICB7569, strain 10
M. morganii 126/3048 = assay: MIC determination, broth microdilution (CLSI); settings: Morganella morganii, 126/3048, strain 5
P. aeruginosa PAO1 = assay: MIC determination, broth microdilution (CLSI); settings: Pseudomonas aeruginosa, PAO1, strain 6
C. freundii K21/3034 = assay: MIC determination, broth microdilution (CLSI); settings: Citrobacter freundii, K21/3034, strain 4
H. influenzae ATCC 49247 = assay: MIC determination, broth microdilution (CLSI); settings: Haemophilus influenzae, ATCC49247, strain 12; broth microdilution; read-out: MIC strain 12 (H. influenzae ATCC 49247)
E. coli J62-TEM-3 = assay: MIC determination, broth microdilution (CLSI); settings: Escherichia coli, J62TEM3, read-out: MIC strain 18 (E. coli J62-TEM-3), strain 18; broth microdilution
B. fragilis 6688 = assay: MIC determination, broth microdilution (CLSI); settings: Bacteroides fragilis, 6688, strain 15; broth microdilution; read-out: MIC strain 15 (B. fragilis 6688)
E. coli ATCC25922 = assay: MIC determination, broth microdilution (CLSI); settings: Escherichia coli, ATCC25922, strain 1
S. pneumoniae 113 = assay: MIC determination, broth microdilution (CLSI); settings: Streptococcus pneumoniae, 113, strain 13; broth microdilution; read-out: MIC strain 13 (S. pneumoniae 113)
E. coli J62 = assay: MIC determination, broth microdilution (CLSI); settings: Escherichia coli, J62, strain 17; broth microdilution; read-out: MIC strain 17 (E. coli J62)
C. perfringens DSM756 = assay: microbe, parasite or virus in culture; settings: Clostridium perfringens, DSM756, read-out: MIC strain 16 (C. perfringens DSM756), strain 16; broth microdilution
[3] = Staphylococcus aureus, 133, strain 11, read-out: strain 11 MIC
[4] = Staphylococcus aureus, 133, strain 14, broth microdilution, read-out: MIC strain 14 (S. aureus 133)

| SMILES | MIC (A. baumannii ATCC15308) [µg/mL] | MIC (E. cloacae 34654) [µg/mL] | MIC [1] [µg/mL] | MIC [2] [µg/mL] | MIC (S. aureus 133; [3]) [µg/mL] | MIC (K. pneumoniae 60) [µg/mL] | MIC strain 19 (E. coli J62-TEM-3 + 4 μg/mL clavulanic acid) (Bacteria) | MIC strain 20 (E. coli J62-TEM-3 + 4 μg/mL sulbactam) (Bacteria) | MIC strain 21 (E. coli J62-TEM-3 + 4 μg/mL tazobactam) (Bacteria) | MIC (S. maltophilia ICB7569) [µg/mL] | MIC (M. morganii 126/3048) [µg/mL] | MIC (P. aeruginosa PAO1) [µg/mL] | MIC (C. freundii K21/3034) [µg/mL] | MIC (H. influenzae ATCC 49247) [µg/mL] | MIC (E. coli J62-TEM-3) [µg/mL] | MIC (B. fragilis 6688) [µg/mL] | MIC (E. coli ATCC25922) [µg/mL] | MIC (S. pneumoniae 113) [µg/mL] | MIC (E. coli J62) [µg/mL] | MIC (C. perfringens DSM756) [µg/mL] | other results |
| --- | --- | --- | --- | --- | --- | --- | --- | --- | --- | --- | --- | --- | --- | --- | --- | --- | --- | --- | --- | --- | --- |
| CC1(C)[C@H](NC(=O)/C(=N\OCCOc2ccc(C(=N)N[C@H](CN)CO)cc2)c2csc(N)n2)C(=O)N1OS(=O)(=O)O [Example 85, (2Z)-2-{[2-(4-{N-[(2R)-1-Amino-3-hydroxypropan-2-yl]carbamimidoyl}phenoxy)ethoxy]imino}-2-(2-amino-1,3-thiazol-4-yl)-N-[(3S)-2,2-dimethyl-4-oxo-1-(sulfooxy)azetidin-3-yl]ethanamide] | 2 (≈ 3.25 µM) | 0.5 (≈ 0.813 µM) | 8 (≈ 13 µM) | 8 (≈ 13 µM) | ≤ 0.063 | 0.5 (≈ 0.813 µM) | 0.25 µg/mL | 0.25 µg/mL | 0.5 µg/mL | 32 (≈ 52.1 µM) | 0.25 (≈ 0.407 µM) | 4 (≈ 6.51 µM) | 0.25 (≈ 0.407 µM) | ≤ 0.063 | 8 (≈ 13 µM) | 4 (≈ 6.51 µM) | 0.25 (≈ 0.407 µM) | ≤ 0.063 | 0.5 (≈ 0.813 µM) | 4 (≈ 6.51 µM) | MIC (S. aureus 133; [4]): 8 µg/mL (≈ 13 µM) |
| CC1(C)[C@H](NC(=O)/C(=N\OCCOc2ccc(C3=NCC(N)CN3)cc2)c2csc(N)n2)C(=O)N1OS(=O)(=O)O (stereo partly drawn) [Example 86, (2Z)-2-({2-[4-(5-Amino-1,4,5,6-tetrahydropyrimidin-2-yl)phenoxy]ethoxy}imino)-2-(2-amino-1,3-thiazol-4-yl)-N-[(3S)-2,2-dimethyl-4-oxo-1-(sulfooxy)azetidin-3-yl]ethanamide] | 2 (≈ 3.35 µM) | 0.5 (≈ 0.838 µM) | 8 (≈ 13.4 µM) | 8 (≈ 13.4 µM) | ≤ 0.063 | 0.5 (≈ 0.838 µM) | 0.25 µg/mL | 0.25 µg/mL | 0.5 µg/mL | 32 (≈ 53.6 µM) | 0.5 (≈ 0.838 µM) | 4 (≈ 6.7 µM) | 0.25 (≈ 0.419 µM) | ≤ 0.063 | 16 (≈ 26.8 µM) | 4 (≈ 6.7 µM) | 0.25 (≈ 0.419 µM) | ≤ 0.063 | 0.25 (≈ 0.419 µM) | 2 (≈ 3.35 µM) | MIC (S. aureus 133; [4]): 4 µg/mL (≈ 6.7 µM) |
| CC1(C)[C@H](NC(=O)/C(=N\O[C@@H](COc2ccc(C(=N)N[C@@H]3CCCNC3)cc2)C(=O)O)c2csc(N)n2)C(=O)N1OS(=O)(=O)O [Example 88, (2S)-2-({[(1Z)-1-(2-Amino-1,3-thiazol-4-yl)-2-{[(3S)-2,2-dimethyl-4-oxo-1-(sulfooxy)azetidin-3-yl]amino}-2-oxoethylidene]amino}oxy)-3-(4-{N-[(3R)-piperidin-3-yl]carbamimidoyl}phenoxy)propanoic acid] | 2 (≈ 2.99 µM) | ≤ 0.063 | 1 (≈ 1.5 µM) | 1 (≈ 1.5 µM) |  | 0.125 (≈ 0.187 µM) | ≦0.063 mg/L | ≦0.063 mg/L | ≦0.063 mg/L | 4 (≈ 5.98 µM) | ≤ 0.063 | 1 (≈ 1.5 µM) | ≤ 0.063 | ≤ 0.063 | 2 (≈ 2.99 µM) | 8 (≈ 12 µM) | ≤ 0.063 | 0.5 (≈ 0.748 µM) | 0.125 (≈ 0.187 µM) | 0.5 (≈ 0.748 µM) | MIC (S. aureus 133; [4]): 32 µg/mL (≈ 47.9 µM) |
| CC1(C)[C@H](NC(=O)/C(=N\OCCOc2ccc(C3=NCC(CN)N3)cc2)c2csc(N)n2)C(=O)N1OS(=O)(=O)O (stereo partly drawn) [Example 91, (2Z)-2-[(2-{4-[5-(Aminomethyl)-4,5-dihydro-1H-imidazol-2-yl]phenoxy}ethoxy)imino]-2-(2-amino-1,3-thiazol-4-yl)-N-[(3S)-2,2-dimethyl-4-oxo-1-(sulfooxy)azetidin-3-yl]ethanamide] | 1 (≈ 1.68 µM) | 0.25 (≈ 0.419 µM) | 2 (≈ 3.35 µM) | 4 (≈ 6.7 µM) | ≤ 0.063 | 0.125 (≈ 0.21 µM) | 0.125 µg/mL | 0.125 µg/mL | 0.125 µg/mL | 16 (≈ 26.8 µM) | 0.25 (≈ 0.419 µM) | 2 (≈ 3.35 µM) | 0.125 (≈ 0.21 µM) | ≤ 0.063 | 4 (≈ 6.7 µM) | 4 (≈ 6.7 µM) | 0.125 (≈ 0.21 µM) | ≤ 0.063 | 0.125 (≈ 0.21 µM) | 2 (≈ 3.35 µM) | MIC (S. aureus 133; [4]): 2 µg/mL (≈ 3.35 µM) |
| CC1(C)[C@H](NC(=O)/C(=N\OCCOc2ccc(C(=N)NC3CNNC3)cc2)c2csc(N)n2)C(=O)N1OS(=O)(=O)O [Example 92] | 4 (≈ 6.54 µM) | 1 (≈ 1.63 µM) | 8 (≈ 13.1 µM) | 8 (≈ 13.1 µM) | ≤ 0.063 | 0.5 (≈ 0.817 µM) | 0.5 µg/mL | 0.5 µg/mL | 0.5 µg/mL | 32 (≈ 52.3 µM) | 0.5 (≈ 0.817 µM) | 8 (≈ 13.1 µM) | 0.5 (≈ 0.817 µM) | 0.125 (≈ 0.204 µM) | 32 (≈ 52.3 µM) | 8 (≈ 13.1 µM) | 0.5 (≈ 0.817 µM) | ≤ 0.063 | 1 (≈ 1.63 µM) | 2 (≈ 3.27 µM) | MIC (S. aureus 133; [4]): 8 µg/mL (≈ 13.1 µM) |
| CC(C)(N)CNC(=N)c1ccc(OC[C@H](O/N=C(\C(=O)N[C@@H]2C(=O)N(OS(=O)(=O)O)C2(C)C)c2csc(N)n2)C(=O)O)cc1 [Example 94, (2S)-3-{4-[N-(2-Amino-2-methylpropyl)carbamimidoyl]phenoxy}-2-({[(1Z)-1-(2-amino-1,3-thiazol-4-yl)-2-{[(3S)-2,2-dimethyl-4-oxo-1-(sulfooxy)azetidin-3-yl]amino}-2-oxoethylidene]amino}oxy)propanoic acid] | 2 (≈ 3.05 µM) | 0.125 (≈ 0.19 µM) | 2 (≈ 3.05 µM) | 2 (≈ 3.05 µM) | ≤ 0.063 | 0.125 (≈ 0.19 µM) | 0.125 µg/mL | ≦0.063 mg/L | 0.125 µg/mL | 4 (≈ 6.09 µM) | 0.125 (≈ 0.19 µM) | 2 (≈ 3.05 µM) | 0.125 (≈ 0.19 µM) | ≤ 0.063 | 8 (≈ 12.2 µM) | 8 (≈ 12.2 µM) | 0.125 (≈ 0.19 µM) | 0.5 (≈ 0.761 µM) | 0.25 (≈ 0.381 µM) | 0.5 (≈ 0.761 µM) | MIC (S. aureus 133; [4]): 32 µg/mL (≈ 48.7 µM) |
| CNCCNC(=N)c1ccc(OC[C@H](O/N=C(\C(=O)N[C@@H]2C(=O)N(OS(=O)(=O)O)C2(C)C)c2csc(N)n2)C(=O)O)cc1 [Example 95, (2S)-2-({[(1Z)-1-(2-Amino-1,3-thiazol-4-yl)-2-{[(3S)-2,2-dimethyl-4-oxo-1-(sulfooxy)azetidin-3-yl]amino}-2-oxoethylidene]amino}oxy)-3-(4-{N-[2-(methylamino)ethyl]carbamimidoyl}phenoxy)propanoic acid] | 2 (≈ 3.11 µM) | 0.125 (≈ 0.195 µM) | 2 (≈ 3.11 µM) | 2 (≈ 3.11 µM) | ≤ 0.063 | 0.125 (≈ 0.195 µM) | 0.125 µg/mL | ≦0.063 mg/L | 0.125 µg/mL | 4 (≈ 6.22 µM) | ≤ 0.063 | 1 (≈ 1.56 µM) | 0.125 (≈ 0.195 µM) | ≤ 0.063 | 4 (≈ 6.22 µM) | 8 (≈ 12.4 µM) | 0.125 (≈ 0.195 µM) | 0.5 (≈ 0.778 µM) | 0.125 (≈ 0.195 µM) | 2 (≈ 3.11 µM) |  |
| CC1(C)[C@H](NC(=O)/C(=N\O[C@@H](COc2ccc(C(=N)N[C@@H]3CCNC3)cc2)C(=O)O)c2csc(N)n2)C(=O)N1OS(=O)(=O)O [Example 96] | 1 (≈ 1.53 µM) | ≤ 0.063 | 1 (≈ 1.53 µM) | 1 (≈ 1.53 µM) | ≤ 0.063 | ≤ 0.063 | ≦0.063 mg/L | ≦0.063 mg/L | ≦0.063 mg/L | 4 (≈ 6.11 µM) | ≤ 0.063 | 1 (≈ 1.53 µM) | ≤ 0.063 | ≤ 0.063 | 4 (≈ 6.11 µM) | 8 (≈ 12.2 µM) | 0.125 (≈ 0.191 µM) | 0.5 (≈ 0.764 µM) | 0.125 (≈ 0.191 µM) | 1 (≈ 1.53 µM) | MIC (S. aureus 133; [4]): 32 µg/mL (≈ 48.9 µM) |

From patent US9556165B2 (priority 2012, dated 2017)
